The results in this text go back to patent US10975037B2 (priority 2018, dated 2021).

The subject of test [1] is IL-17 production by CD4 T cells under conditions which favor Th17 differentiation. Briefly: Human Th17 assay (IL-17 production by CD4 T cells). Format: cell-based. As to the method: The human Th17 assay tests the effect of RORγt modulatory compounds on IL-17 production by CD4 T cells under conditions which favor Th17 differentiation. Total CD4^+ T cells were isolated from the peripheral blood mononuclear cells (PBMC) of healthy donors using a CD4^+ T cell isolation kit II, following the manufacturer's instructions (Miltenyi Biotec). […] 50 μL of compound at titrated concentrations in DMSO were added into each well at final DMSO concentration at 0.2%. Cells were incubated for 1 hour, then 50 μL of Th17 cell differentiation medium was added to each well. […] Cells were cultured at 37° C. and 5% CO2 for 3 days. Supernatants were collected and the accumulated IL-17 in culture was measured by using MULTI-SPOT® Cytokine Plate following manufacture's instruction (Meso Scale Discovery). The plate was read using Sector Imager 6000, and IL-17 concentration was extrapolated from the standard curve. The IC50s were determined by GraphPad.

The target in test [2] is human RORγt ligand binding domain (RORγt LBD) (Homo sapiens (Human), UniProt P51449). Briefly: RORγt ThermoFluor® assay (thermal shift binding). The gist of the method: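 Thermal shift with 0.065 mg/mL RORγt LBD and 60 μM 1,8-ANS in 100 mM Hepes pH 7.0, 10 mM NaCl, 2.5 mM GSH, 0.002% Tween-20.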
Sequence of human RORγt ligand binding domain (RORγt LBD) (P51449 other isoform, or with tags, fused parts or gaps): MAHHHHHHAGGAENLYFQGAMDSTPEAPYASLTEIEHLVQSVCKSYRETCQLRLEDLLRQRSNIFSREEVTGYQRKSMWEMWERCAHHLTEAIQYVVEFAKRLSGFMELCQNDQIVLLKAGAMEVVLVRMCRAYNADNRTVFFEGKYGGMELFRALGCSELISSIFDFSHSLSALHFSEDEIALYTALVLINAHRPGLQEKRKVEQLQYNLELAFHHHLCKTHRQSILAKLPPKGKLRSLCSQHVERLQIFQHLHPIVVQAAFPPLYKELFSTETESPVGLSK
A further test concerns the target full-length human RORγt (Homo sapiens (Human), UniProt P51449). Kind of test: RORγt (full-length human) reporter assay, conditions A or B, HEK293T cells. The format is cell-based. To be noted: for inhibition at 6 µM: read-out: RORγt (FL) Reporter Assay A or B, % inhibition @ 6 μM, 6 μM compound concentration. The gist of the method:
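After 16–20 h, dual firefly/Renilla luciferase luminescence was read. Firefly signal was normalized to DMSO and saturating reference compound, then to Renilla, and fitted for IC50; % inhibition is versus DMSO.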
Background: In a reporter assay the amount or activity of a reporter protein is the signal.

Where [3] appears, read: Homo sapiens, CD4+ T; read-out: Human Th17 Assay, IC50.
Where [4] appears, read: read-out: ThermoFluor® Assay, Kd.
The mark [5] stands for this setting: HEK-293T, 0.67 μM compound concentration (footnote ****), read-out: RORγt (FL) Reporter Assay A or B, % inhibition.
[6] abbreviates: RORγt (FL) Reporter Assay A or B, IC50, HEK293T cells.
Where [7] appears, read: HEK-293T, 3 μM compound concentration (footnote *), read-out: RORγt (FL) Reporter Assay A or B, % inhibition.
[8] abbreviates: HEK-293T, read-out: RORγt (FL) Reporter Assay A or B, % inhibition.

SMILES strings stand for the structures. Where two headings read alike, the source gives them in different places. Marks after values point to notes of the source that are not given here.

Sequence of full-length human RORγt (P51449 other isoform, or with tags, fused parts or gaps): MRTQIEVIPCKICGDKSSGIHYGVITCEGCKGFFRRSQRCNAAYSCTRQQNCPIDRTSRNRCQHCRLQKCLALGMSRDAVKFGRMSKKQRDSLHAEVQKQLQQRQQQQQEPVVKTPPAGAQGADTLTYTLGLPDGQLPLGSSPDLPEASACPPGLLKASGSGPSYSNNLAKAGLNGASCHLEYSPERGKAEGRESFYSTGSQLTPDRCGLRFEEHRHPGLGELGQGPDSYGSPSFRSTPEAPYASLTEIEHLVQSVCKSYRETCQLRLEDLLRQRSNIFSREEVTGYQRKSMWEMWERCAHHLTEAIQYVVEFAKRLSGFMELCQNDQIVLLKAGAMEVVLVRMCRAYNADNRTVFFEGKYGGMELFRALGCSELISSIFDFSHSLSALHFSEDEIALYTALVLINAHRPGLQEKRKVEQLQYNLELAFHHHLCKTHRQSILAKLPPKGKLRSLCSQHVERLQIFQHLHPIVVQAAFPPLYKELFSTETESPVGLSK

With `CCn1nc(C(=O)NC[C@H]2CC[C@H](S(C)(=O)=O)CC2)c(C)c1-c1ccc(CC(C)(C)C(F)(F)F)cc1OC` [Example 227, 1-Ethyl-5-(2-methoxy-4-(3,3,3-trifluoro-2,2-dimethylpropyl)phenyl)-4-methyl-N-(((1r,4r)-4-(methylsulfonyl)cyclohexyl)methyl)-1H-pyrazole-3-carboxamide], the IC50 was 14 nM in test [1] (setting [3]) and 9 nM on full-length human RORγt (setting [6]). Moreover, the Kd in test [2] (setting [4]) came out at 1.1 nM. Besides, on full-length human RORγt (setting [5]), the inhibition at 0.67 µM was 92%.

For the compound `CCn1nc(C(=O)NC[C@]2(O)CC[C@@H](S(C)(=O)=O)CC2)c(C)c1-c1ccc(CC(C)(C)C(F)(F)F)cc1OC(F)F` [Example 143, 5-(2-(Difluoromethoxy)-4-(3,3,3-trifluoro-2,2-dimethylpropyl)phenyl)-1-ethyl-N-(((1s,4s)-1-hydroxy-4-(methylsulfonyl)cyclohexyl)methyl)-4-methyl-1H-pyrazole-3-carboxamide], the concentration for half-maximal inhibition (IC50) was found to be 10 nM in test [1] (setting [3]) and 7.3 nM against full-length human RORγt (setting [6]). For the same compound, in test [2] (setting [4]), the dissociation constant (Kd) came to 0.37 nM. Moreover, the inhibition at […] at full-length human RORγt (HEK-293T, 0.22 μM compound concentration (footnote *******), read-out: RORγt (FL) Reporter Assay A or B, % inhibition) was determined as 101%.

For the compound `CCn1nc(C(=O)NC[C@]2(O)CC[C@@H](S(C)(=O)=O)C[C@H]2O)c(C)c1-c1ccc(C[C@H](C)C(F)(F)F)cc1OC(F)F` (stereo in doubt) [Example 58, 5-(2-(difluoromethoxy)-4-((S*)-3,3,3-trifluoro-2-methylpropyl)phenyl)-N-(((1R*,2R*,4R*)-1,2-dihydroxy-4-(methylsulfonyl)cyclohexyl)methyl)-1-ethyl-4-methyl-1H-pyrazole-3-carboxamide], the results for the IC50 (in test [1] (setting [3]); at full-length human RORγt (setting [6])) were 19 nM and 9.7 nM, respectively. The dissociation constant (Kd) in test [2] (ThermoFluor® Assay, Kd) was 2.6 nM. In addition, at full-length human RORγt (setting [7]), the inhibition at 3 µM was determined as 100%.

As for `CCn1nc(C(=O)NC[C@H]2CC[C@H](S(C)(=O)=O)CC2)c(Cl)c1-c1ccc(N[C@H](C)C(F)(F)F)cc1OC` [Example 23, 4-chloro-1-ethyl-5-(2-methoxy-4-(((R)-1,1,1-trifluoropropan-2-yl)amino)phenyl)-N-(((1 r,4R)-4-(methylsulfonyl)cyclohexyl)methyl)-1H-pyrazole-3-carboxamide], the IC50 worked out at 38 nM in test [1] (setting [3]) and 28 nM against full-length human RORγt (setting [6]). Also, in test [2] (setting [4]), the Kd came to 4.6 nM. At full-length human RORγt (HEK-293T, 2 μM compound concentration, read-out: RORγt (FL) Reporter Assay A or B, % inhibition), the inhibition at 2 µM was found to be 104%.

As for `CCn1nc(C(=O)NC[C@]2(O)CC[C@@H](S(C)(=O)=O)CC2)c(Cl)c1-c1ccc(CC(C)(C)C(F)(F)F)cc1OC(F)F` [Example 132, 4-Chloro-5-(2-(difluoromethoxy)-4-(3,3,3-trifluoro-2,2-dimethylpropyl)phenyl)-1-ethyl-N-(((1s,4s)-1-hydroxy-4-(methylsulfonyl)cyclohexyl)methyl)-1H-pyrazole-3-carboxamide], the half-inhibitory concentration (IC50) turned out to be 6 nM in test [1] (Homo sapiens, CD4+ T, read-out: Human Th17 Assay, IC50) and 8.1 nM on full-length human RORγt (setting [6]). The Kd in test [2] (setting [4]) was found to be 0.45 nM. Besides, the inhibition at 2 µM on full-length human RORγt (setting [8]) is 99%.

As to `CCn1nc(C(=O)NC[C@H]2CC[C@H](S(C)(=O)=O)CC2)c(Cl)c1-c1ccc(CCC(F)(F)F)cc1OC(F)F` [Example 222, 4-Chloro-5-(2-(difluoromethoxy)-4-(3,3,3-trifluoropropyl)phenyl)-1-ethyl-N-(((1r,4r)-4-(methylsulfonyl)cyclohexyl)methyl)-1H-pyrazole-3-carboxamide], the half-inhibitory concentration (IC50) in test [1] (read-out: Human Th17 Assay, IC50) was found to be 11 nM; on full-length human RORγt (HEK293T cells, read-out: RORγt (FL) Reporter Assay A or B, IC50), 6.2 nM. In addition, the Kd in test [2] (setting [4]) is 0.75 nM. Further, the “RORγt (FL) Reporter Assay A or B, % inhibition” value on full-length human RORγt (3 μM compound concentration (footnote *)) is reported as 101* %.

For `CCn1nc(C(=O)NC[C@]2(O)CC[C@@H](S(N)(=O)=O)CC2)c(Cl)c1-c1ccc(CC(C)(C)C(F)(F)F)cc1OC(F)F` [Example 62, 4-Chloro-5-(2-(difluoromethoxy)-4-(3,3,3-trifluoro-2,2-dimethylpropyl)phenyl)-1-ethyl-N-(((1s,4s)-1-hydroxy-4-sulfamoylcyclohexyl)methyl)-1H-pyrazole-3-carboxamide], the IC50 was 36 nM in test [1] (setting [3]) and 12 nM against full-length human RORγt (setting [6]). Further, in test [2] (setting [4]), the equilibrium dissociation constant (Kd) amounted to 0.78 nM. The inhibition at 3 µM on full-length human RORγt (setting [7]) worked out at 120%.

Consider `CCn1nc(C(=O)NC[C@H]2CC[C@H](S(C)(=O)=O)CC2)c(Cl)c1-c1ccc(C[C@H](C)C(F)(F)F)cc1OC` (single isomer, unassigned) [Example 3, 4-Chloro-1-ethyl-5-(2-methoxy-4-((S*)-3,3,3-trifluoro-2-methylpropyl)phenyl)-N-(((1r,4R)-4-(methylsulfonyl)cyclohexyl)methyl)-1H-pyrazole-3-carboxamide], for which the IC50 in test [1] (setting [3]) was 15 nM; on full-length human RORγt (setting [6]), 9 nM. Moreover, the Kd in test [2] (ThermoFluor® Assay, Kd) came out at 0.63 nM. On full-length human RORγt (setting [5]), the inhibition at 0.67 µM was 98%.

With `CCn1nc(C(=O)NC[C@]2(CO)CC[C@@H](S(C)(=O)=O)CC2)c(Cl)c1-c1ccc(CC(C)C(F)(F)F)cc1OC` (some centres unmarked) [Example 92, 4-Chloro-1-ethyl-N-(((1s*,4s*)-1-(hydroxymethyl)-4-(methylsulfonyl)cyclohexyl)methyl)-5-(2-methoxy-4-(3,3,3-trifluoro-2-methylpropyl)phenyl)-1H-pyrazole-3-carboxamide], the concentration for half-maximal inhibition (IC50) in test [1] (setting [3]) worked out at 270 nM; against full-length human RORγt (setting [6]), 66 nM. The Kd in test [2] (setting [4]) came out at 39 nM. At full-length human RORγt (setting [8]), the inhibition at 0.67 µM was determined as 87%.

As for `CCn1nc(C(=O)NC[C@]2(O)CC[C@@H](S(C)(=O)=O)CC2)c(Cl)c1-c1ccc(CC(C(F)(F)F)C(F)(F)F)cc1OC` [Example 85, 4-Chloro-1-ethyl-N-(((1s,4s)-1-hydroxy-4-(methylsulfonyl)cyclohexyl)methyl)-5-(2-methoxy-4-(3,3,3-trifluoro-2-(trifluoromethyl)propyl)phenyl)-1H-pyrazole-3-carboxamide], the IC50 was determined as 9.3 nM in test [1] (setting [3]) and 2.6 nM at full-length human RORγt (setting [6]). Also, the Kd in test [2] (setting [4]) came out at 0.43 nM. For the same compound, the inhibition at 0.67 µM on full-length human RORγt (setting [5]) amounted to 103%.

For `COCCn1nc(C(=O)NC[C@H]2CC[C@H](S(C)(=O)=O)CC2)c(Cl)c1-c1ccc(N[C@H](C)C(F)(F)F)cc1OC` [Example 187, 4-Chloro-5-(2-methoxy-4-(((R)-1,1,1-trifluoropropan-2-yl)amino)phenyl)-1-(2-methoxyethyl)-N-(((1r,4R)-4-(methylsulfonyl)cyclohexyl)methyl)-1H-pyrazole-3-carboxamide], the IC50 in test [1] (setting [3]) was 54 nM; at full-length human RORγt (setting [6]), 110 nM. In addition, the Kd in test [2] (ThermoFluor® Assay, Kd) turned out to be 18 nM. For the same compound, the inhibition at 6 µM on full-length human RORγt (HEK-293T) was determined as 104%.

Consider `COc1cc(N[C@H](C)C(F)(F)F)ccc1-c1c(Cl)c(C(=O)NC[C@H]2CC[C@H](S(C)(=O)=O)CC2)nn1CCO` [Example 201, 4-Chloro-1-(2-hydroxyethyl)-5-(2-methoxy-4-(((R)-1,1,1-trifluoropropan-2-yl)amino)phenyl)-N-(((r,4R)-4-(methylsulfonyl)cyclohexyl)methyl)-1H-pyrazole-3-carboxamide], for which the figures for the concentration for half-maximal inhibition (IC50) (in test [1] (setting [3]); at full-length human RORγt (setting [6])) were 2800 nM and 1600 nM, respectively. Besides, in test [2] (setting [4]), the Kd came to 200 nM. In addition, the inhibition at 6 µM on full-length human RORγt (HEK-293T) was found to be 82%.

As to `CCn1nc(C(=O)NC[C@]2(O)CC[C@@H](S(C)(=O)=O)CC2)c(C)c1-c1ccc(CCCC(F)(F)F)cc1OC(F)F` [Example 79, 5-(2-(Difluoromethoxy)-4-(4,4,4-trifluorobutyl)phenyl)-1-ethyl-N-(((1s,4s)-1-hydroxy-4-(methylsulfonyl)cyclohexyl)methyl)-4-methyl-1H-pyrazole-3-carboxamide], the IC50 turned out to be 58 nM in test [1] (setting [3]) and 8.7 nM on full-length human RORγt (setting [6]). The dissociation constant (Kd) in test [2] (setting [4]) is 2 nM. The inhibition at 0.67 µM on full-length human RORγt (setting [5]) stood at 99%.

As to `CCn1nc(C(=O)NC[C@]2(O)CC[C@@H](S(C)(=O)=O)C[C@H]2O)c(Cl)c1-c1ccc(CC(C)(C)C(F)(F)F)cc1OC(F)F` (single isomer, unassigned) [Example 46, 4-Chloro-5-(2-(difluoromethoxy)-4-(3,3,3-trifluoro-2,2-dimethylpropyl)phenyl)-N-(((1R*,2R*,4R*)-1,2-dihydroxy-4-(methylsulfonyl)cyclohexyl)methyl)-1-ethyl-1H-pyrazole-3-carboxamide], the 50% inhibitory concentration (IC50) in test [1] (setting [3]) turned out to be 13 nM; against full-length human RORγt (setting [6]), 5 nM. In addition, the Kd in test [2] (ThermoFluor® Assay, Kd) came to 0.42 nM. The inhibition at 0.67 µM at full-length human RORγt (setting [5]) came out at 92%.

In general, IC50 refers to the concentration that gives 50% inhibition. One may read the Kd as a measure of binding affinity in units of concentration. The inhibition is the change of the read-out against control, counted positive when it falls.
